Consider two molecules from PMC12472947 (Pharmaceuticals, 2025).

Series [1] concerns the target electric eel AChE [EeAChE] (Electrophorus electricus, UniProt O42275). In words: biochemical. The note with it: for IC50: Electric eel AChE, Ellman method, read-out: IC50(nM) ± SD AChE (EeAChE); for SI: Selectivity Index = EqBChE IC50/EeAChE IC50. The class given is biochemical. The method, then: The anticholinesterase activity was determined using Ellman’s method, adapted as follows. […] Subsequently, 60 μL of 5,5′-dithiobis(2-nitrobenzoic acid) (DTNB, 1.1 mM) and 30 μL of enzyme solution (electric eel AChE [EeAChE], human AChE [hAChE], or equine serum BChE [EqBChE], 0.20 U/mL) containing 1 mg/mL bovine serum albumin (BSA) were added. […] Enzyme activity was calculated as the percentage relative to untreated controls, subtracting the blank reference. IC50 values were derived via non-linear regression analysis of dose–response curves (Figure S4) using GraphPad Prism v7.0.
On the technique in general: Ellman's reagent forms a yellow product with free thiols.

In series [2] the target is T1, equine serum butyrylcholinesterase (EqBuChE) (Equus caballus, UniProt P81908).
T1 construct: equine serum BChE [EqBChE]; from tissue; host or cells: equine serum
The series is described as follows: Enzymatic kinetic study, EqBChE. To be noted: BChE. The class given is biochemical. As for the experimental part:
(§1) The enzymatic kinetics of cholinesterase inhibition were determined according to an adapted Ellman’s method. All of the solutions were prepared at 20 °C in 0.02 M Tris-HCl buffer (pH 7.5; ionic strength ~0.02 M), stock solutions of test compounds were prepared in DMSO:EtOH (7:3) mixture (20 mM), and the experiment was conducted in triplicate. To a flat-bottom 96-well transparent plate (path length of 0.6 cm) were added 150 μL of treatment solutions with inhibitors 1a, 1h, and 1j at two different concentrations (Table S1) distributed in eight sets of triplicate each. Eight sets of untreated triplicates were used as a negative control. Following, there were added 60 μL of 5,5′-Dithiobis(2-nitrobenzoic acid) (DTNB, Ellman’s reagent) at 1.1 mM and 30 μL of electric eel acetylcholinesterase (EeAChE) or equine serum butyrylcholinesterase (EqBuChE) at 0.20 U/mL in the presence of 1 mg/mL bovine serum albumin (BSA). […] Ki, Ki’ (competitive and noncompetitive inhibition constants, respectively), Km (Michaelis-Menten constant), and Vmax values were calculated with Graphpad Prism v7.0 using the non-linear regression models for enzyme kinetics inhibition and enzyme kinetics–substrate vs. velocity.

The target in series [3] is electric eel acetylcholinesterase (EeAChE) (Electrophorus electricus, UniProt O42275). In words: Enzymatic kinetic study, EeAChE. The class given is biochemical. To be noted: AChE. As for the experimental part: as §1
Series [4] in a line: Cytotoxicity (neurotoxicity) MTT assay in SH-SY5Y. To be noted: human, SH-SY5Y neuroblastoma cells; for viability at 24 h, 12.5 µM / viability at 24 h, 25 µM / viability at 24 h, 50 µM: MTT, read-out: Cell viability (% of control); for viability at 24 h: up to 25 μM, read-out: cell viability. Type of series: cell-based. The method, then:
(§2) The immortalized human neuroblastoma cell line (SH-SY5Y–ATCC: CRL-2226; BCRJ:0223) was used to evaluate cytotoxicity. The cell line was cultured in Dulbecco’s Modified Eagle’s Medium and F12 in a 1:1 ratio (DMEM:F12; Sigma-Aldrich code 0697, Brazil) supplemented with 10% fetal bovine serum (FBS; Sigma-Aldrich code F2442, Brazil) and 1% streptomycin/penicillin (10,000 U/mL and 10,000 μg/mL, respectively; Nova Biotecnologia code BR30110-01, Cotia, SP, Brazil) and incubated at 37 °C with 5% CO2. The culture medium was replaced every 48 h, until the cells reached semi-confluence (≥70%). Cell passage was carried out with the aid of trypsin-EDTA/0.25% solution (Nova Biotecnologia, Brazil) and divided between 5 or 8 mL culture volumes depending on the respective bottles (25 or 75 cm^2) used.
(§3) The in vitro cytotoxicity assay evaluated cell viability using the [3-(4,5-dimethylthiazol-2yl)-2,5-diphenyl tetrazolium] bromide (MTT) reduction assay. Cells were seeded at an initial density of 5.0 × 10^4 cells/well in 96-well plates in a volume of 200 µL. […] In the next step, the culture medium was replaced by the sample solution previously described (Section 3.4.2). After 24 h exposure, the medium was replaced with 100 μL of MTT in phosphate-buffer saline (PBS), pH 7.4, at a concentration of 0.5 mg.mL^−1/well and the plates were incubated for an additional 3 h. Then, the MTT solution was removed, and 100 μL of DMSO was added to solubilize the formazan crystals. The cell viability was measured by absorbance at 562 nm using a Microplate Absorbance Reader (Kasuaki, Brazil). All concentrations tested were evaluated in nine replicates (n = 9). The variation in results was observed using ANOVA followed by Tukey’s test for multiple comparisons through GraphPad Prism v5^TM with a significance level of p < 0.05.
A general note: Formazan colour is commonly taken as a measure of viable cells.

Series [5] has as its system SH-SY5Y neuroblastoma cells. The series is described as follows: Cytotoxicity (neurotoxicity) MTT assay in SH-SY5Y. The class given is cell-based. The note with it: up to 50 µM. As for the experimental part:
as §2, §3

[6] abbreviates: enzyme-substrate complex, global non-linear regression (Table 2).
[7] abbreviates: free enzyme (Table S3), read-out: Ki ± SE (95% CI).
Where [8] appears, read: global non-linear regression, mixed inhibition (Table S3).

“And” between values parts separate entries of the source, which are not always exact repeats. Identical values can stand only once. “Also recorded” adds a separate entry of the source. Like-named read-outs stand apart in the source and are kept apart here. Marks after values point to notes of the source that are not given here. Where only a bound is given, the exact number is not on record here.

electric eel acetylcholinesterase (EeAChE), sequence (O42275 24-633): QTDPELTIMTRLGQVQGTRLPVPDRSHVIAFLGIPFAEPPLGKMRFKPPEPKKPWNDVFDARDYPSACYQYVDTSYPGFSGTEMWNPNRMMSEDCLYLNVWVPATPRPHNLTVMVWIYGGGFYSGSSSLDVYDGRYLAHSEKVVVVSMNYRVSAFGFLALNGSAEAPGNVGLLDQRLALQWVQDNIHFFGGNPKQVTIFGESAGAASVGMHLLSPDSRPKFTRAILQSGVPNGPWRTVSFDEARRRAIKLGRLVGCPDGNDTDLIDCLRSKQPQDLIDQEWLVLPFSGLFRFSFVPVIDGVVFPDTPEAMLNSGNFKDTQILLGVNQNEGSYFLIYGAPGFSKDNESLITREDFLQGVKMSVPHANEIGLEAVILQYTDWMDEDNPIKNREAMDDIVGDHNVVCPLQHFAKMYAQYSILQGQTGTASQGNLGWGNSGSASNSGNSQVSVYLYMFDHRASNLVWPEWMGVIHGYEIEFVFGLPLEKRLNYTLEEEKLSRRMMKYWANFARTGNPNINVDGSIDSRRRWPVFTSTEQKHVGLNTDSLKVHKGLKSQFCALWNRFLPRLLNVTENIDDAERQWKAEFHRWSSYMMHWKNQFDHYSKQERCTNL
electric eel AChE [EeAChE], sequence (O42275 24-633): as above
T1 sequence (P81908 whole entry): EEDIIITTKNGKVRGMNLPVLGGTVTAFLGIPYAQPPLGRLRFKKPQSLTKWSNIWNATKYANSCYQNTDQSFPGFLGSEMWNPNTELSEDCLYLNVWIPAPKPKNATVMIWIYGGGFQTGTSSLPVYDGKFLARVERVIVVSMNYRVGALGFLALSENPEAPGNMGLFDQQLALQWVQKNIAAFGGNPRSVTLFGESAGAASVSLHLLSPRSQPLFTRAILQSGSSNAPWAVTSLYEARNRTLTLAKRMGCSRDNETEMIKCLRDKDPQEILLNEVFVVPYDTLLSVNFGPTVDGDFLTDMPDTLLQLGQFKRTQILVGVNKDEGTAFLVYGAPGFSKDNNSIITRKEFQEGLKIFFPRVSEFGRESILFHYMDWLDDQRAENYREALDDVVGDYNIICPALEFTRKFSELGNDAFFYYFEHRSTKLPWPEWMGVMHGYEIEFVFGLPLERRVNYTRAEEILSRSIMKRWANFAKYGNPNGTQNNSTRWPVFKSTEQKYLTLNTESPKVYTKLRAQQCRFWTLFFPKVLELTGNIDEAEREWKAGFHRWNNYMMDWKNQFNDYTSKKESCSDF

Usually IC50 stands for the concentration at which inhibition is half-maximal. Broadly, the Ki is a dissociation constant, usually derived from enzyme kinetics or from competition with a known ligand. The viability is a read-out of living cells in per cent, often relative to untreated cells. Consider `O=c1oc2cc(OCCN3CCCCC3)ccc2cc1-c1cn(Cc2ccccc2)nn1` [Compound 1h, 3-(1-Benzyl-1H-1,2,3-triazol-4-yl)-7-(2-(piperidin-1-yl)ethoxy)-2H-chromen-2-one], for which the concentration for half-maximal inhibition (IC50) in series [1] was 6.03 ± 0.62 nM. Also, in series [1], the SI worked out at 632. In addition, the inhibition mechanism entry in series [2] (Lineweaver-Burk plots) and in series [3] (Lineweaver-Burk plots) was “mixed-type inhibition” throughout. Also, the Ki was determined as 980 ± 24 nM in series [2] (competitive inhibition constant (Table S2), read-out: Ki (nM) ± SD); 1250 ± 151 nM in series [2] (setting [7]); 1250 ± 150 nM in series [2] (free enzyme, global non-linear regression (Table 2), read-out: Ki (nM) ± SE); 4.73 ± 0.878 nM in series [3] (setting [7]); 4.73 ± 0.88 nM in series [3] (free enzyme, global non-linear regression to mixed-inhibition equation (Table 2), read-out: Ki (nM) ± SE). For the same molecule, the figures for the “Ki’ (nM) ± SE” value in series [2] (setting [6]) and in series [3] (setting [6]) were 4830 ± 620 nM and 7.17 ± 1.48 nM, respectively. Besides, the “α ± SE (95% CI)” value is 3.852 ± 0.4265 in series [2] (setting [8]) and 1.516 ± 0.3136 in series [3] (setting [8]). Also, the “Vmax ± SD” value in series [2] (inhibitor 2.8 μM) is 3.62 ± 0.1358 1 × 10^3 nM/min and 3.62 ± 0.14 1 × 10^3 nM/min; in series [2] (inhibitor 4.8 μM), 3.40 ± 0.0349 1 × 10^3 nM/min and 3.40 ± 0.03 1 × 10^3 nM/min; in series [3] (inhibitor 0.005 μM), 4.45 ± 0.02231 1 × 10^3 nM/min and 4.45 ± 0.02 1 × 10^3 nM/min; in series [3] (inhibitor 0.007 μM), 3.19 ± 0.0981 1 × 10^3 nM/min and 3.19 ± 0.010 1 × 10^3 nM/min. Further, in series [4], the viability at 24 h, 12.5 µM amounted to 121%. In series [4], the viability at 24 h, 25 µM stood at 121%. The viability at 24 h, 50 µM in series [4] came out at 111%. Moreover, in series [4], the viability at 24 h was not below 70%. The neurotoxicity result in series [5] is recorded as “non-neurotoxic; also recorded: no neurotoxicity”.
`O=c1oc2cc(OCCCN3CCCCC3)ccc2cc1-c1cn(Cc2ccccc2)nn1` [Compound 1q, 3-(1-Benzyl-1H-1,2,3-triazol-4-yl)-7-(3-(piperidin-1-yl)propoxy)-2H-chromen-2-one]: in series [1], the IC50 stood at 1950 ± 86 nM and the SI is ~2 ^e,f. Also, in series [4], the viability at 24 h, 12.5 µM was found to be 99%; the viability at 24 h, 25 µM is 105%; the viability at 24 h, 50 µM was found to be 84%; the viability at 24 h was not below 70%. Also, in series [5], the neurotoxicity entry is “non-neurotoxic”.
